In ChEMBL document CHEMBL2375215, “Phenylpropiophenone derivatives as potential anticancer agents: synthesis, biological evaluation and quantitative structure-activity relationship study” (Eur J Med Chem, 2013):

Legend:
HeLa [1] = assay: Selectivity index, ratio of IC50 for human PBMC to IC50 for human HeLa cells
MCF7 [2] = assay: Selectivity index, ratio of IC50 for human PBMC to IC50 for human MCF7 cells
K562 [3] = assay: Cytotoxicity against human K562 cells assessed as decrease in cell survival after 72 hrs by MTT assay; format: functional, cell-based; details: for IC50: K562, 72 h
[4] = Selectivity index, ratio of IC50 for human PBMC to IC50 for human Fem-X cells
PC-3 [5] = assay: Selectivity index, ratio of IC50 for human PBMC to IC50 for human PC3 cells
PC-3 [6] = assay: Selectivity index, ratio of IC50 for PHA-stimulated human PBMC to IC50 for human PC3 cells
HeLa [7] = assay: Selectivity index, ratio of IC50 for PHA-stimulated human PBMC to IC50 for human HeLa cells
MCF7 [8] = assay: Selectivity index, ratio of IC50 for PHA-stimulated human PBMC to IC50 for human MCF7 cells
[9] = Selectivity index, ratio of IC50 for PHA-stimulated human PBMC to IC50 for human LS174 cells
K562 [10] = assay: Selectivity index, ratio of IC50 for human PBMC to IC50 for human K562 cells
LS174 = assay: (§1) Cytotoxicity against human LS174 cells assessed as decrease in cell survival after 72 hrs by MTT assay; format: functional, cell-based
[11] = as §1; format: functional, cell-based; details: LS174, 72 h
MCF7 [12] = assay: Cytotoxicity against human MCF7 cells assessed as decrease in cell survival after 72 hrs by MTT assay; format: functional, cell-based; details: for IC50: MCF7, 72 h
[13] = Selectivity index, ratio of IC50 for PHA-stimulated human PBMC to IC50 for human Fem-X cells; format: functional
PBMC [14] = assay: Cytotoxicity against PHA-stimulated human PBMC assessed as decrease in cell survival after 72 hrs by MTT assay; format: cell-based
[15] = (§2) Cytotoxicity against human Fem-X cells assessed as decrease in cell survival after 72 hrs by MTT assay; format: functional, cell-based
Fem-X = assay: as §2; format: functional, cell-based
HeLa [16] = assay: Cytotoxicity against human HeLa cells assessed as decrease in cell survival after 72 hrs by MTT assay; format: functional, cell-based
PBMC [17] = assay: Cytotoxicity against human PBMC assessed as decrease in cell survival after 72 hrs by MTT assay; format: cell-based
K562 [18] = assay: Selectivity index, ratio of IC50 for PHA-stimulated human PBMC to IC50 for human K562 cells
[19] = Selectivity index, ratio of IC50 for human PBMC to IC50 for human LS174 cells
PC-3 [20] = assay: Cytotoxicity against human PC3 cells assessed as decrease in cell survival after 72 hrs by MTT assay; format: functional, cell-based; details: for IC50: PC-3, 72 h

| SMILES | Ratio IC50 (HeLa [1]) | Ratio IC50 (MCF7 [2]) | Activity (K562 [3]) | IC50 (K562 [3]; read-out: IC50) | IC50 (K562 [3]; read-out: pIC50 (converted)) | Ratio IC50 [4] | Ratio IC50 (PC-3 [5]) | Ratio IC50 (PC-3 [6]) | Ratio IC50 (HeLa [7]) | Ratio IC50 (MCF7 [8]) | Ratio IC50 [9] | Ratio IC50 (K562 [10]) | Activity (LS174) | IC50 ([11]; read-out: IC50) | IC50 ([11]; read-out: pIC50 (converted)) | Activity (MCF7 [12]) | IC50 (MCF7 [12]; read-out: IC50) | IC50 (MCF7 [12]; read-out: pIC50 (converted)) | Ratio IC50 [13] | IC50 (PBMC [14]) | further results |
| --- | --- | --- | --- | --- | --- | --- | --- | --- | --- | --- | --- | --- | --- | --- | --- | --- | --- | --- | --- | --- | --- |
| CCCNCC(O)COc1ccccc1C(=O)CCc1ccccc1C.Cl (racemic) | 5.89 | 2.24 | Dose-dependent effect | 8.1 µM | 8.1 µM | 7.71 | 2.91 | 2.77 | 5.6 | 2.13 | 2.45 | 6.47 | Dose-dependent effect | 20.3 µM | 20.3 µM | Dose-dependent effect | 23.4 µM | 23.4 µM | 7.32 | 49.8 µM | IC50 ([15]; read-out: IC50): 6.8 µM; IC50 ([15]; read-out: pIC50 (converted)): 6.8 µM; Activity (Fem-X): Dose-dependent effect; Activity (HeLa [16]): Dose-dependent effect; IC50 (HeLa [16]; read-out: IC50): 8.9 µM; IC50 (HeLa [16]; read-out: pIC50 (converted)): 8.9 µM; IC50 (PBMC [17]): 52.4 µM; Ratio IC50 (K562 [18]): 6.15; Ratio IC50 [19]: 2.58; Activity (PC-3 [20]): Dose-dependent effect; IC50 (PC-3 [20]; read-out: IC50): 18 µM; IC50 (PC-3 [20]; read-out: pIC50 (converted)): 18 µM |
| CCCNCC(O)COc1ccccc1C(=O)CCc1ccccc1C(F)(F)F.Cl (racemic) | 6.55 | 4.58 | Dose-dependent effect | 8.8 µM | 8.8 µM | 2.76 | 1.91 | 1.52 | 5.24 | 3.66 | 1.91 | 5.05 | Dose-dependent effect | 18.6 µM | 18.6 µM | Dose-dependent effect | 9.7 µM | 9.7 µM | 2.2 | 35.5 µM | IC50 ([15]; read-out: IC50): 16.1 µM; IC50 ([15]; read-out: pIC50 (converted)): 16.1 µM; Activity (Fem-X): Dose-dependent effect; Activity (HeLa [16]): Dose-dependent effect; IC50 (HeLa [16]; read-out: IC50): 6.78 µM; IC50 (HeLa [16]; read-out: pIC50 (converted)): 6.78 µM; IC50 (PBMC [17]): 44.4 µM; Ratio IC50 (K562 [18]): 4.03; Ratio IC50 [19]: 2.39; Activity (PC-3 [20]): Dose-dependent effect; IC50 (PC-3 [20]; read-out: IC50): 23.3 µM; IC50 (PC-3 [20]; read-out: pIC50 (converted)): 23.3 µM |
